# Earlier results as cited in patent publication US10729766B2 (priority 2013, dated 2020).
# Experiments:
# [1] = mice; single bolus low dose administration
smiles,measurement,setting,value
"O=P1(N(CCCl)CCCl)NCCCO1 (stereo not shown) [Cyclophosphamide, N,N-bis(2-chloroethyl)-1,3,2-oxazaphosphinan-2-amine 2-oxide]",time of effects returning to normal,[1],7 to 10 days
same,time to nadir of effects after administration,[1],≤ 4 days
same,"bioavailability, oral versus parenteral administration","human, in vivo, po",little difference in bioavailability
same,peak plasma levels of the parent,varies between patients,3 to 11 h
